Here are results for one compound from PMC5472792, “Bub1 positions Mad1 close to KNL1 MELT repeats to promote checkpoint signalling” (Nature Communications, 2017).

Substitutions are numbered along the chain they refer to. Square brackets hold non-standard residues; d marks the D form. Peptide text beside a SMILES is read from it. * marks the point of attachment. Biotin = O=C1N[C@H]2[C@H](CS[C@H]2CCCCC(=O)*)N1; pT = C[C@@H](OP(=O)(O)O)[C@H](N)C(=O)O; Nle = CCCC[C@H](N)C(=O)O

In one assay the target is T1, Mad1 597–718 RLK/AAA (Homo sapiens, UniProt Q9Y6D9, K619A/L618A/R617A).
T1 construct: His; Strep; made in house; host or cells: E. coli BL21(DE3) (stated for the wild-type construct)
T1 sequence (Q9Y6D9 597-718 R617A/L618A/K619A limits assumed): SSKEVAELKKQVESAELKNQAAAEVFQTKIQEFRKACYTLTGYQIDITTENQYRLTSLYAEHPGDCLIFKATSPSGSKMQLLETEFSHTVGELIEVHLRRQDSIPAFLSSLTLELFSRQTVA
Put plainly: SPR, binding of CD1 peptide to Mad1 597–718 RLK/AAA. Particulars: Mad1 597–718 RLK/AAA injected up to 250 μM, 25 °C. From the text:
(§1) To further investigate a possible direct interaction between Mad1 and CD1, we used surface plasmon resonance technology. […] To achieve a more efficient synthesis of CD1 peptides and in particularly of the phosphorylated peptides we used norleucine (Nle) instead of methionine (Met) but we cannot exclude that Mad1 will have a different affinity for peptides containing methionine. […] Given that Ser459 and Thr461 phosphorylation was critical for Bub1 functionality in vivo we tested if they affected Mad1 597–718 binding. […] As the Mad1 RLK motif is required for binding Bub1 in budding yeast in vivo[39], we tested whether this motif was required for direct binding to CD1 phosphorylated on Thr461. […] We furthermore analysed the binding of Mad1 597–718 to CD1 peptides harboring the Ile471Asp and […] (residues 474–476) mutations with Thr461 being phosphorylated.
Figure 4 Direct binding of Mad1 to CD1 peptide. […] The equilibrium dissociation constants, KD, were calculated using a steady-state affinity model and the lines represent the best fit to the model. […] (c) Sequence and summary of the affinity of CD1 peptides for Mad1 597–718 as determined by SPR.
Bub1 peptides were purchased from Biosyntan Gmbh (Germany). The purity obtained in the synthesis was 95–98% as determined by high-performance liquid chromatography (HPLC) and the identity of the peptides was confirmed by mass spectrometry. […]
(In general: In SPR one partner is held on a chip, and binding of the other changes the refractive index at the surface.)

The target in a further assay is T2, Mad1 597–718 (Homo sapiens, UniProt Q9Y6D9).
T2 construct: His (N); Strep (N); made in house; host or cells: E. coli BL21(DE3)
T2 sequence (Q9Y6D9 597-718): T1 sequence (Q9Y6D9 597-718 R617A/L618A/K619A limits assumed) with A21R, A22L, A23K
Put plainly: SPR, binding of CD1 peptides to Mad1 597–718 (steady-state affinity). To be noted: ratio of Kd, SPR, Mad1 597–718.
Description: as §1
Figure 4 Direct binding of Mad1 to CD1 peptide. (a) SPR steady-state responses for control, WT, pS459, pT461, pS459/pT461, I471D, MFQ/RKK and control Bub1 CD1 peptides to purified Mad1 597–718 protein. The biotinylated peptides were captured on a streptavidin-coated CM5 chip and increasing concentrations of Mad1 were subsequently added for binding assessment. Empty symbols represent experimental data points from two technical replicates using the same chip. An additional independent experiment with two replicates has been performed giving in all cases consistent results. The equilibrium dissociation constants, KD, were calculated using a steady-state affinity model and the lines represent the best fit to the model. […] (b) Similar to a, SPR steady-state responses for pT461 peptide with purified Mad1 597–718 or Mad1 597–718 RLK/AAA or the Mad1 485–718/Mad2 complex. (c) Sequence and summary of the affinity of CD1 peptides for Mad1 597–718 as determined by SPR.
Bub1 peptides were purchased from Biosyntan Gmbh (Germany). The purity obtained in the synthesis was 95–98% as determined by high-performance liquid chromatography (HPLC) and the identity of the peptides was confirmed by mass spectrometry. SPR experiments were performed on a Biacore T200 (GE Healthcare) at 25 °C. Streptavidin (ThermoFisher Scientific) at 0.05 mg ml^−1 in 10 mM sodium acetate, pH 4.5, was directly immobilized on a CM5 sensor chip (GE Healthcare) by standard amine coupling chemistry with N-hydroxysuccinimide and N-ethly-N′-(3-dimethlyaminopropyl)carbodiimide up to an immobilization level of approximately 2000 RU. Unreacted sites were quenched with ethanolamine HCl. Subsequently, N-terminal biotinylated Bub1 peptides (at 10 nM in HBS-EP+ buffer and flow rate 5 μl min^−1) were captured at ∼50 RU, respectively, in channels 2, 3 and 4 of the streptavidin coated chip, leaving channel 1 free for reference. An identical approach was used to prepare a second CM5 chip with the negative controls. In this case, a N-terminal biotinylated 5A mutant, a non-related phosphorylated peptide and the Bub1 pT461 peptide were captured, respectively, in channels 2, 3 and 4. HBS-EP+ (10 mM Hepes, pH 7.4, 150 mM NaCl, 3 mM EDTA, 0.05% (v/v) Surfactant P20) was used as running buffer for both streptavidin immobilization and peptide capture. […] Sensorgrams were analysed after double referencing. […]

Consider `CCCC[C@H](NC(=O)[C@H](CC(N)=O)NC(=O)[C@H](CCCC)NC(=O)[C@@H](NC(=O)[C@H](Cc1ccccc1)NC(=O)CNC(=O)[C@H](CC(C)C)NC(=O)[C@H](C)NC(=O)[C@H](CCC(=O)O)NC(=O)[C@H](CCCCN)NC(=O)[C@@H](NC(=O)[C@H](Cc1c[nH]cn1)NC(=O)[C@@H](NC(=O)[C@@H](NC(=O)[C@@H]1CCCN1C(=O)[C@H](CO)NC(=O)[C@@H]1CCCN1C(=O)[C@H](CCC(N)=O)NC(=O)[C@@H](NC(=O)[C@H](CCCCN)NC(=O)[C@H](CO)NC(=O)[C@@H]1CCCN1C(=O)[C@@H](NC(=O)[C@H](C)NC(=O)[C@H](CCC(N)=O)NC(=O)[C@@H](NC(=O)CCCC[C@@H]1SC[C@@H]2NC(=O)N[C@@H]21)C(C)C)[C@@H](C)O)C(C)C)[C@@H](C)OP(=O)(O)O)C(C)C)[C@@H](C)O)[C@@H](C)CC)C(=O)N[C@@H](Cc1ccccc1)C(=O)N[C@@H](CCC(N)=O)C(=O)N[C@@H](C)C(=O)N1CCC[C@H]1C(=O)N[C@H](C(=O)N[C@@H](CC(C)C)C(=O)N[C@@H](Cc1c[nH]c2ccccc12)C(=O)O)[C@@H](C)O` [CD1 pT461] (Biotin-VQATPSKVQPSP[pT]VHTKEALGFI[Nle]N[Nle]FQAPTLW-OH; C-terminus assumed), for which the binding entry on Mad1 597–718 RLK/AAA is reported as “no binding”. For the same compound, at Mad1 597–718, the “stronger binding to Mad1 than unphosphorylated CD1 peptide” value worked out at 10 fold.
